Marks after values point to notes of the source that are not given here.
Tested on: mouse organs
Assay: In vivo activity screening in mice: organ mean total flux (p/s) of luciferase activity after injection of F2 LNP pools (Table 6, FIG. 7A-7C)
Conditions: luciferase mRNA
Summary of the method: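 C57BL/6J mice given one tail-vein injection of pooled Formulation F2 LNPs carrying firefly luciferase mRNA (0.25-3 mg/kg) in PBS. At 4-6 h, s.c. D-luciferin given; organs imaged ex vivo by IVIS within 10-15 min, after saline cardiac perfusion. Mean total flux (p/s) per organ ROI.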

CCCCC/C=C\CCOC(=O)CCCCCC(=O)OCC(COC(=O)CCCCC)(COC(=O)CCCCCC(=O)OCC/C=C\CCCCC)COC(=O)CCC(CCCCCC)OC(=O)NCCN1CCCC1 (stereo not shown) [Compound 60]
Organ Mean Total Flux Femur (Mouse 2, dose 1.0 mg/kg): 56.4 p/s (×10^6) | Organ Mean Total Flux Heart (Mouse 2, dose 1.0 mg/kg): 2.9 p/s (×10^6) | Organ Mean Total Flux Kidney (Mouse 2, dose 1.0 mg/kg): 5.5 p/s (×10^6) | Organ Mean Total Flux Liver (Mouse 2, dose 1.0 mg/kg): 1118 p/s (×10^6) | Organ Mean Total Flux Lung (Mouse 2, dose 1.0 mg/kg): 72.8 p/s (×10^6) | Organ Mean Total Flux Muscle (Mouse 2, dose 1.0 mg/kg): 28.7 p/s (×10^6) | Organ Mean Total Flux Pancreas (Mouse 2, dose 1.0 mg/kg): 86.2 p/s (×10^6) | Organ Mean Total Flux Spleen (Mouse 2, dose 1.0 mg/kg): 367.7 p/s (×10^6) | Organ Mean Total Flux Femur (Mouse 14, dose 0.5 mg/kg): 11.4 p/s (×10^6) | Organ Mean Total Flux Heart (Mouse 14, dose 0.5 mg/kg): 2.5 p/s (×10^6) | Organ Mean Total Flux Kidney (Mouse 14, dose 0.5 mg/kg): 4.1 p/s (×10^6) | Organ Mean Total Flux Liver (Mouse 14, dose 0.5 mg/kg): 448.0 p/s (×10^6) | Organ Mean Total Flux Lung (Mouse 14, dose 0.5 mg/kg): 20.5 p/s (×10^6) | Organ Mean Total Flux Muscle (Mouse 14, dose 0.5 mg/kg): 14.9 p/s (×10^6) | Organ Mean Total Flux Pancreas (Mouse 14, dose 0.5 mg/kg): 18.0 p/s (×10^6) | Organ Mean Total Flux Spleen (Mouse 14, dose 0.5 mg/kg): 42.7 p/s (×10^6)

CCCCC/C=C\CCOC(=O)CCCCC(=O)OCC(COC(=O)CCCCC(=O)OCC/C=C\CCCCC)(COC(=O)CCC(CCCCCC)OC(=O)NCCN1CCCC1)COC(=O)C12CCC(F)(CC1)CC2 (stereo not shown) [Compound 93, O6-[2-[(4-fluorobicyclo[2.2.2]octane-1-carbonyl)oxymethyl]-2-[[6-[(Z)-non-3-enoxy]-6-oxo-hexanoyl]oxymethyl]-3-[4-(2-pyrrolidin-1-ylethylcarbamoyloxy)decanoyloxy]propyl]O1-[(Z)-non-3-enyl]hexanedioate]
Organ Mean Total Flux Femur (Mouse 12, dose 0.5 mg/kg): 27.8 p/s (×10^6) | Organ Mean Total Flux Heart (Mouse 12, dose 0.5 mg/kg): 1.3 p/s (×10^6) | Organ Mean Total Flux Kidney (Mouse 12, dose 0.5 mg/kg): 3.5 p/s (×10^6) | Organ Mean Total Flux Liver (Mouse 12, dose 0.5 mg/kg): 528.7 p/s (×10^6) | Organ Mean Total Flux Lung (Mouse 12, dose 0.5 mg/kg): 34.3 p/s (×10^6) | Organ Mean Total Flux Muscle (Mouse 12, dose 0.5 mg/kg): 11.0 p/s (×10^6) | Organ Mean Total Flux Pancreas (Mouse 12, dose 0.5 mg/kg): 25.8 p/s (×10^6) | Organ Mean Total Flux Spleen (Mouse 12, dose 0.5 mg/kg): 136.6 p/s (×10^6)

CCCCC/C=C\CCOC(=O)CCCCCCC(=O)OCC(COC(=O)CCCCCCC(=O)OCC/C=C\CCCCC)(COC(=O)CCCCCCC(=O)OCC/C=C\CCCCC)COC(=O)CCC(CCCCCC)OC(=O)NCCN(C)CC (stereo not shown) [Compound 29, O8-[2-[4-[2-[ethyl(methyl)amino]ethylcarbamoyloxy]decanoyloxymethyl]-3-[8-[(Z)-non-3-enoxy]-8-oxo-octanoyl]oxy-2-[[8-[(Z)-non-3-enoxy]-8-oxooctanoyl]oxymethyl]propyl]O1-[(Z)-non-3-enyl]octanedioate]
Organ Mean Total Flux Femur (Mouse 6, dose 0.5 mg/kg): 4.2 p/s (×10^6) | Organ Mean Total Flux Heart (Mouse 6, dose 0.5 mg/kg): 3.9 p/s (×10^6) | Organ Mean Total Flux Kidney (Mouse 6, dose 0.5 mg/kg): 3.2 p/s (×10^6) | Organ Mean Total Flux Liver (Mouse 6, dose 0.5 mg/kg): 1913 p/s (×10^6) | Organ Mean Total Flux Lung (Mouse 6, dose 0.5 mg/kg): 11.4 p/s (×10^6) | Organ Mean Total Flux Muscle (Mouse 6, dose 0.5 mg/kg): 10.3 p/s (×10^6) | Organ Mean Total Flux Pancreas (Mouse 6, dose 0.5 mg/kg): 1.4 p/s (×10^6) | Organ Mean Total Flux Spleen (Mouse 6, dose 0.5 mg/kg): 3.3 p/s (×10^6)

CCCCCCCCOC(=O)CCCCCC(=O)OCC(COC(=O)CCCCCC(=O)OCCCCCCCC)(COC(=O)CCCCCC(=O)OCCCCCCCC)COC(=O)CCC(CCCCCC)OC(=O)NCCN1CCCC1 (stereo not shown) [Compound 34, O7-[2,2-bis[(7-octoxy-7-oxo-heptanoyl)oxymethyl]-3-[4-(2-pyrrolidin-1-ylethylcarbamoyloxy)decanoyloxy]propyl]O1-octyl heptanedioate]
Organ Mean Total Flux Femur (Mouse 6, dose 0.5 mg/kg): 10.5 p/s (×10^6) | Organ Mean Total Flux Heart (Mouse 6, dose 0.5 mg/kg): 3.3 p/s (×10^6) | Organ Mean Total Flux Kidney (Mouse 6, dose 0.5 mg/kg): 6.7 p/s (×10^6) | Organ Mean Total Flux Liver (Mouse 6, dose 0.5 mg/kg): 1610 p/s (×10^6) | Organ Mean Total Flux Lung (Mouse 6, dose 0.5 mg/kg): 20.2 p/s (×10^6) | Organ Mean Total Flux Muscle (Mouse 6, dose 0.5 mg/kg): 28.3 p/s (×10^6) | Organ Mean Total Flux Pancreas (Mouse 6, dose 0.5 mg/kg): 12.8 p/s (×10^6) | Organ Mean Total Flux Spleen (Mouse 6, dose 0.5 mg/kg): 39.4 p/s (×10^6)

CCCCCCC(CCC(=O)OCC(COC(=O)CCCCCC(=O)OCCC(CCCCC)CCCCC)(COC(=O)CCCCCC(=O)OCCC(CCCCC)CCCCC)COC(=O)CCCCCC(=O)OCCC(CCCCC)CCCCC)OC(=O)NCCN1CCCC1 (stereo not shown) [Compound 52]
Organ Mean Total Flux Femur (Mouse 3, dose 1.0 mg/kg): 6.0 p/s (×10^6) | Organ Mean Total Flux Heart (Mouse 3, dose 1.0 mg/kg): 9.0 p/s (×10^6) | Organ Mean Total Flux Kidney (Mouse 3, dose 1.0 mg/kg): 8.4 p/s (×10^6) | Organ Mean Total Flux Liver (Mouse 3, dose 1.0 mg/kg): 12143 p/s (×10^6) | Organ Mean Total Flux Lung (Mouse 3, dose 1.0 mg/kg): 56.0 p/s (×10^6) | Organ Mean Total Flux Muscle (Mouse 3, dose 1.0 mg/kg): 15.1 p/s (×10^6) | Organ Mean Total Flux Pancreas (Mouse 3, dose 1.0 mg/kg): 4.7 p/s (×10^6) | Organ Mean Total Flux Spleen (Mouse 3, dose 1.0 mg/kg): 6.1 p/s (×10^6)

CCCCCCCCCCOC(=O)CCCCCC(=O)OCC(COC(=O)CCCCCC(=O)OCCCCCCCCCC)(COC(=O)CCCCCC(=O)OCCCCCCCCCC)COC(=O)CCC(CCCCCC)OC(=O)NCCN1CCCC1 (stereo not shown) [Compound 36, O7-[2,2-bis[(7-decoxy-7-oxo-heptanoyl)oxymethyl]-3-[4-(2-pyrrolidin-1-ylethylcarbamoyloxy)decanoyloxy]propyl]O1-decyl heptanedioate]
Organ Mean Total Flux Femur (Mouse 6, dose 0.5 mg/kg): 3.6 p/s (×10^6) | Organ Mean Total Flux Heart (Mouse 6, dose 0.5 mg/kg): 3.7 p/s (×10^6) | Organ Mean Total Flux Kidney (Mouse 6, dose 0.5 mg/kg): 2.7 p/s (×10^6) | Organ Mean Total Flux Liver (Mouse 6, dose 0.5 mg/kg): 2330 p/s (×10^6) | Organ Mean Total Flux Lung (Mouse 6, dose 0.5 mg/kg): 16.5 p/s (×10^6) | Organ Mean Total Flux Muscle (Mouse 6, dose 0.5 mg/kg): 6.0 p/s (×10^6) | Organ Mean Total Flux Pancreas (Mouse 6, dose 0.5 mg/kg): 1.2 p/s (×10^6) | Organ Mean Total Flux Spleen (Mouse 6, dose 0.5 mg/kg): 6.1 p/s (×10^6)

CCCCC/C=C\CCCOC(=O)CCCCC(=O)OCC(COC(=O)CCCCC(=O)OCCC/C=C\CCCCC)(COC(=O)CCCCC(=O)OCCC/C=C\CCCCC)COC(=O)CCC(CCCCCC)OC(=O)NCCN1CCCC1 (stereo not shown) [Compound 47, O6-[2,2-bis[[6-[(Z)-dec-4-enoxy]-6-oxo-hexanoyl]oxymethyl]-3-[4-(2-pyrrolidin-1ylethylcarbamoyloxy)decanoyloxy]propyl]O1-[(Z)-dec-4-enyl]hexanedioate]
Organ Mean Total Flux Femur (Mouse 5, dose 0.5 mg/kg): 15.1 p/s (×10^6) | Organ Mean Total Flux Heart (Mouse 5, dose 0.5 mg/kg): 1.7 p/s (×10^6) | Organ Mean Total Flux Kidney (Mouse 5, dose 0.5 mg/kg): 2.5 p/s (×10^6) | Organ Mean Total Flux Liver (Mouse 5, dose 0.5 mg/kg): 974.3 p/s (×10^6) | Organ Mean Total Flux Lung (Mouse 5, dose 0.5 mg/kg): 25.7 p/s (×10^6) | Organ Mean Total Flux Muscle (Mouse 5, dose 0.5 mg/kg): 62.4 p/s (×10^6) | Organ Mean Total Flux Pancreas (Mouse 5, dose 0.5 mg/kg): 4.4 p/s (×10^6) | Organ Mean Total Flux Spleen (Mouse 5, dose 0.5 mg/kg): 67.0 p/s (×10^6)

CCCCC/C=C\CCOC(=O)CCCCCCC(=O)OCC(COC(=O)CCCCCCC(=O)OCC/C=C\CCCCC)(COC(=O)CCCCCCC(=O)OCC/C=C\CCCCC)COC(=O)CCC(CCCCCC)OC(=O)OCCCN1CCCC1 (stereo not shown) [Compound 31, O8-[2,2-bis[[8-[(Z)-non-3-enoxy]-8-oxo-octanoyl]oxymethyl]-3-[4-(3-pyrrolidin-1-ylpropoxycarbonyloxy)decanoyloxy]propyl]O1-[(Z)-non-3-enyl]octanedioate]
Organ Mean Total Flux Femur (Mouse 5, dose 0.5 mg/kg): 0.9 p/s (×10^6) | Organ Mean Total Flux Heart (Mouse 5, dose 0.5 mg/kg): 0.1 p/s (×10^6) | Organ Mean Total Flux Kidney (Mouse 5, dose 0.5 mg/kg): 0.1 p/s (×10^6) | Organ Mean Total Flux Liver (Mouse 5, dose 0.5 mg/kg): 26.8 p/s (×10^6) | Organ Mean Total Flux Lung (Mouse 5, dose 0.5 mg/kg): 1.2 p/s (×10^6) | Organ Mean Total Flux Muscle (Mouse 5, dose 0.5 mg/kg): 1.0 p/s (×10^6) | Organ Mean Total Flux Pancreas (Mouse 5, dose 0.5 mg/kg): 0.2 p/s (×10^6) | Organ Mean Total Flux Spleen (Mouse 5, dose 0.5 mg/kg): 2.0 p/s (×10^6)

CCCCC/C=C\CCOC(=O)CCCCC(=O)OCC(COC(=O)CCCCC(=O)OCC/C=C\CCCCC)(COC(=O)CCC(CCCCCC)OC(=O)NCCN1CCCC1)COC(=O)C1(C2CCCCC2)CCCCC1 (stereo not shown) [Compound 96, O6-[2-[(1-cyclohexylcyclohexanecarbonyl)oxymethyl]-2-[[6-[(Z)-non-3-enoxy]-6-oxo-hexanoyl]oxymethyl]-3-[4-(2-pyrrolidin-1-ylethylcarbamoyl-oxy)decanoyloxy]propyl]O1-[(Z)-non-3-enyl]hexanedioate]
Organ Mean Total Flux Femur (Mouse 12, dose 0.5 mg/kg): 3.4 p/s (×10^6) | Organ Mean Total Flux Heart (Mouse 12, dose 0.5 mg/kg): 0.4 p/s (×10^6) | Organ Mean Total Flux Kidney (Mouse 12, dose 0.5 mg/kg): 0.9 p/s (×10^6) | Organ Mean Total Flux Liver (Mouse 12, dose 0.5 mg/kg): 213.0 p/s (×10^6) | Organ Mean Total Flux Lung (Mouse 12, dose 0.5 mg/kg): 9.0 p/s (×10^6) | Organ Mean Total Flux Muscle (Mouse 12, dose 0.5 mg/kg): 11.9 p/s (×10^6) | Organ Mean Total Flux Pancreas (Mouse 12, dose 0.5 mg/kg): 0.9 p/s (×10^6) | Organ Mean Total Flux Spleen (Mouse 12, dose 0.5 mg/kg): 6.6 p/s (×10^6)

CCCCCCC(CCC(=O)OCC(COC(=O)CCCCCOC(=O)C(CCCC)CCCCCC)(COC(=O)CCCCCOC(=O)C(CCCC)CCCCCC)COC(=O)CCCCCOC(=O)C(CCCC)CCCCCC)OC(=O)NCCN1CCCC1 (stereo not shown) [Compound 55, [6-[2,2-bis[6-(2-butyloctanoyloxy)hexanoyloxymethyl]-3-[4-(2-pyrrolidin-1ylethylcarbamoyloxy)decanoyloxy]propoxy]-6-oxo-hexyl]2-butyloctanoate]
Organ Mean Total Flux Femur (Mouse 3, dose 1.0 mg/kg): 6.1 p/s (×10^6) | Organ Mean Total Flux Heart (Mouse 3, dose 1.0 mg/kg): 4.4 p/s (×10^6) | Organ Mean Total Flux Kidney (Mouse 3, dose 1.0 mg/kg): 2.4 p/s (×10^6) | Organ Mean Total Flux Liver (Mouse 3, dose 1.0 mg/kg): 4527 p/s (×10^6) | Organ Mean Total Flux Lung (Mouse 3, dose 1.0 mg/kg): 19.9 p/s (×10^6) | Organ Mean Total Flux Muscle (Mouse 3, dose 1.0 mg/kg): 17.4 p/s (×10^6) | Organ Mean Total Flux Pancreas (Mouse 3, dose 1.0 mg/kg): 2.6 p/s (×10^6) | Organ Mean Total Flux Spleen (Mouse 3, dose 1.0 mg/kg): 6.2 p/s (×10^6)

Source: US20260234115A1, “LIPID COMPOUNDS, COMPOSITIONS, AND USES THEREOF” (Liberate Bio, Inc., priority 2023, published 2026)
